Patent publication US4471131A, “Novel silyl esters of N-phosphonomethylglycine” (Monsanto Company, priority 1983, dated 1984)

Tests used:
Assay in all cases: post-emergence herbicidal activity, greenhouse
Type in all cases: in vivo
Barnyardgrass = system: Barnyardgrass
Method in brief: (§1)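 The readout is plant injury compared with untreated pans, taken at two time points, about two and four weeks after spraying. Plants had grown two to three weeks in greenhouse topsoil pans before atomizer treatment.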

Canada Thistle = details: Table II, formulated in anhydrous tetrahydrofuran
Method in brief: as §1

Cocklebur = system: Cocklebur
Method in brief: as §1

Common Lambsquarters = system: Common Lambsquarters
Method in brief: as §1

Johnsongrass = details: Table II
Method in brief: as §1

Morningglory = system: Morningglory
Method in brief: as §1

Soybean = details: Table III
Method in brief: as §1

Sugar Beet = details: Table III
Method in brief: as §1

Wild Buckwheat = details: Table III
Method in brief: as §1

Yellow Nutsedge = details: Table II
Method in brief: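 After sowing in soil-filled pans and growing under greenhouse conditions, plants at two to three weeks were sprayed post-emergence with the test compound in a formulation containing approximately 0.4% emulsifier by weight. Observations of plant injury, relative to controls, followed at about two and four weeks.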

[1] = Table II, 2 WAT, 5.6 kg/h, formulated in anhydrous tetrahydrofuran
[2] = Table II, 2 WAT, 11.2 kg/h, formulated in anhydrous tetrahydrofuran
[3] = Table II, 4 WAT, 5.6 kg/h, formulated in anhydrous tetrahydrofuran
[4] = Table II, 4 WAT, 11.2 kg/h, formulated in anhydrous tetrahydrofuran
[5] = Table III, 2 WAT, 1.1 kg/h, formulated in anhydrous tetrahydrofuran
[6] = Table III, 2 WAT, 5.6 kg/h, formulated in anhydrous tetrahydrofuran
[7] = Table III, 2 WAT, .28 kg/h, formulated in anhydrous tetrahydrofuran
[8] = Table III, 4 WAT, 1.1 kg/h, formulated in anhydrous tetrahydrofuran
[9] = Table III, 4 WAT, 5.6 kg/h, formulated in anhydrous tetrahydrofuran
[10] = Table III, 4 WAT, .28 kg/h, formulated in anhydrous tetrahydrofuran
[11] = 2 WAT, 5.6 kg/h, formulated in anhydrous tetrahydrofuran
[12] = 2 WAT, 11.2 kg/h, formulated in anhydrous tetrahydrofuran
[13] = 4 WAT, 5.6 kg/h, formulated in anhydrous tetrahydrofuran
[14] = 4 WAT, 11.2 kg/h, formulated in anhydrous tetrahydrofuran
[15] = 2 WAT, 1.1 kg/h, formulated in anhydrous tetrahydrofuran
[16] = 2 WAT, .28 kg/h, formulated in anhydrous tetrahydrofuran
[17] = 4 WAT, 1.1 kg/h, formulated in anhydrous tetrahydrofuran
[18] = 4 WAT, .28 kg/h, formulated in anhydrous tetrahydrofuran

CCOC(=O)CNCP(=O)(O)O[Si](c1ccccc1)(c1ccccc1)C(C)(C)C [Ex. 7, Glycine, N--((([(1,1-Dimethylethyl)Diphenylsilyl]Oxy)Hydroxyphosphinyl)Methyl)-,Ethyl Ester]
1 (25-49% inhibition): Plant Response Index (K) (Barnyardgrass; [1]) | Plant Response Index (K) (Barnyardgrass; [7]) | Plant Response Index (K) (Barnyardgrass; [10]) | Plant Response Index (A) (Canada Thistle; 2 WAT, 5.6 kg/h) | Plant Response Index (A) (Canada Thistle; 2 WAT, 11.2 kg/h) | Plant Response Index (B) (Cocklebur; [2]) | Plant Response Index (B) (Cocklebur; Table III, 2 WAT, .28 kg/h) | Plant Response Index (B) (Cocklebur; Table III, 4 WAT, .28 kg/h) | Plant Response Index (I) (Johnsongrass; [14]) | Plant Response Index (D) (Morningglory; [2]) | Plant Response Index (D) (Morningglory; [7]) | Plant Response Index (D) (Morningglory; Table III, 4 WAT, .28 kg/h) | Plant Response Index (D) (Morningglory; [10]) | Plant Response Index (L) (Soybean; [15]) | Plant Response Index (L) (Soybean; [16]) | Plant Response Index (L) (Soybean; 4 WAT, 1.1 kg/h) | Plant Response Index (L) (Soybean; [17]) | Plant Response Index (L) (Soybean; 4 WAT, 5.6 kg/h) | Plant Response Index (L) (Soybean; [18]) | Plant Response Index (M) (Sugar Beet; 2 WAT, 1.1 kg/h) | Plant Response Index (M) (Sugar Beet; [15]) | Plant Response Index (M) (Sugar Beet; 2 WAT, 5.6 kg/h) | Plant Response Index (M) (Sugar Beet; 2 WAT, .28 kg/h) | Plant Response Index (M) (Sugar Beet; [16]) | Plant Response Index (M) (Sugar Beet; 4 WAT, 1.1 kg/h) | Plant Response Index (M) (Sugar Beet; [17]) | Plant Response Index (M) (Sugar Beet; 4 WAT, .28 kg/h) | Plant Response Index (M) (Sugar Beet; [18]) | Plant Response Index (Q) (Wild Buckwheat; [16]) | Plant Response Index (Q) (Wild Buckwheat; [18]) | Plant Response Index (G) (Yellow Nutsedge; 2 WAT, 5.6 kg/h) | Plant Response Index (G) (Yellow Nutsedge; [11]) | Plant Response Index (G) (Yellow Nutsedge; [12])
0 (0-24% inhibition): Plant Response Index (I) (Johnsongrass; [11]) | Plant Response Index (I) (Johnsongrass; [12]) | Plant Response Index (L) (Soybean; 2 WAT, .28 kg/h) | Plant Response Index (L) (Soybean; 4 WAT, .28 kg/h)
4 (100% inhibition): Plant Response Index (K) (Barnyardgrass; Table II, 4 WAT, 11.2 kg/h) | Plant Response Index (B) (Cocklebur; Table II, 4 WAT, 5.6 kg/h) | Plant Response Index (B) (Cocklebur; Table II, 4 WAT, 11.2 kg/h) | Plant Response Index (E) (Common Lambsquarters; Table II, 2 WAT, 11.2 kg/h) | Plant Response Index (E) (Common Lambsquarters; [2]) | Plant Response Index (E) (Common Lambsquarters; Table II, 4 WAT, 11.2 kg/h) | Plant Response Index (E) (Common Lambsquarters; [4]) | Plant Response Index (E) (Common Lambsquarters; Table III, 2 WAT, 1.1 kg/h) | Plant Response Index (E) (Common Lambsquarters; [5]) | Plant Response Index (E) (Common Lambsquarters; [6]) | Plant Response Index (E) (Common Lambsquarters; Table III, 4 WAT, 1.1 kg/h) | Plant Response Index (E) (Common Lambsquarters; [8]) | Plant Response Index (E) (Common Lambsquarters; [9]) | Plant Response Index (I) (Johnsongrass; 2 WAT, 11.2 kg/h) | Plant Response Index (I) (Johnsongrass; 4 WAT, 5.6 kg/h) | Plant Response Index (I) (Johnsongrass; 4 WAT, 11.2 kg/h) | Plant Response Index (M) (Sugar Beet; [13])
3 (75-99% inhibition): Plant Response Index (K) (Barnyardgrass; Table II, 2 WAT, 5.6 kg/h) | Plant Response Index (K) (Barnyardgrass; Table II, 2 WAT, 11.2 kg/h) | Plant Response Index (K) (Barnyardgrass; Table II, 4 WAT, 5.6 kg/h) | Plant Response Index (K) (Barnyardgrass; [4]) | Plant Response Index (K) (Barnyardgrass; Table III, 2 WAT, 1.1 kg/h) | Plant Response Index (K) (Barnyardgrass; Table III, 2 WAT, 5.6 kg/h) | Plant Response Index (K) (Barnyardgrass; [6]) | Plant Response Index (K) (Barnyardgrass; Table III, 4 WAT, 1.1 kg/h) | Plant Response Index (K) (Barnyardgrass; Table III, 4 WAT, 5.6 kg/h) | Plant Response Index (K) (Barnyardgrass; [9]) | Plant Response Index (A) (Canada Thistle; 4 WAT, 5.6 kg/h) | Plant Response Index (A) (Canada Thistle; 4 WAT, 11.2 kg/h) | Plant Response Index (B) (Cocklebur; Table II, 2 WAT, 5.6 kg/h) | Plant Response Index (B) (Cocklebur; [3]) | Plant Response Index (B) (Cocklebur; [4]) | Plant Response Index (B) (Cocklebur; [6]) | Plant Response Index (B) (Cocklebur; Table III, 4 WAT, 1.1 kg/h) | Plant Response Index (B) (Cocklebur; Table III, 4 WAT, 5.6 kg/h) | Plant Response Index (B) (Cocklebur; [9]) | Plant Response Index (E) (Common Lambsquarters; Table II, 2 WAT, 5.6 kg/h) | Plant Response Index (E) (Common Lambsquarters; [1]) | Plant Response Index (E) (Common Lambsquarters; Table II, 4 WAT, 5.6 kg/h) | Plant Response Index (E) (Common Lambsquarters; [3]) | Plant Response Index (E) (Common Lambsquarters; Table III, 2 WAT, 5.6 kg/h) | Plant Response Index (E) (Common Lambsquarters; Table III, 2 WAT, .28 kg/h) | Plant Response Index (E) (Common Lambsquarters; Table III, 4 WAT, 5.6 kg/h) | Plant Response Index (E) (Common Lambsquarters; Table III, 4 WAT, .28 kg/h) | Plant Response Index (E) (Common Lambsquarters; [10]) | Plant Response Index (I) (Johnsongrass; 2 WAT, 5.6 kg/h) | Plant Response Index (D) (Morningglory; Table III, 4 WAT, 5.6 kg/h) | Plant Response Index (D) (Morningglory; [9]) | Plant Response Index (M) (Sugar Beet; [11]) | Plant Response Index (Q) (Wild Buckwheat; [11]) | Plant Response Index (Q) (Wild Buckwheat; 4 WAT, 5.6 kg/h) | Plant Response Index (Q) (Wild Buckwheat; [13]) | Plant Response Index (G) (Yellow Nutsedge; 4 WAT, 11.2 kg/h)
2 (50-74% inhibition): Plant Response Index (K) (Barnyardgrass; [2]) | Plant Response Index (K) (Barnyardgrass; [3]) | Plant Response Index (K) (Barnyardgrass; [5]) | Plant Response Index (K) (Barnyardgrass; Table III, 2 WAT, .28 kg/h) | Plant Response Index (K) (Barnyardgrass; [8]) | Plant Response Index (K) (Barnyardgrass; Table III, 4 WAT, .28 kg/h) | Plant Response Index (B) (Cocklebur; [1]) | Plant Response Index (B) (Cocklebur; Table II, 2 WAT, 11.2 kg/h) | Plant Response Index (B) (Cocklebur; Table III, 2 WAT, 1.1 kg/h) | Plant Response Index (B) (Cocklebur; [5]) | Plant Response Index (B) (Cocklebur; Table III, 2 WAT, 5.6 kg/h) | Plant Response Index (B) (Cocklebur; [7]) | Plant Response Index (B) (Cocklebur; [8]) | Plant Response Index (B) (Cocklebur; [10]) | Plant Response Index (E) (Common Lambsquarters; [7]) | Plant Response Index (I) (Johnsongrass; [13]) | Plant Response Index (D) (Morningglory; Table II, 2 WAT, 5.6 kg/h) | Plant Response Index (D) (Morningglory; [1]) | Plant Response Index (D) (Morningglory; Table II, 2 WAT, 11.2 kg/h) | Plant Response Index (D) (Morningglory; Table II, 4 WAT, 5.6 kg/h) | Plant Response Index (D) (Morningglory; [3]) | Plant Response Index (D) (Morningglory; Table II, 4 WAT, 11.2 kg/h) | Plant Response Index (D) (Morningglory; [4]) | Plant Response Index (D) (Morningglory; Table III, 2 WAT, 1.1 kg/h) | Plant Response Index (D) (Morningglory; [5]) | Plant Response Index (D) (Morningglory; Table III, 2 WAT, 5.6 kg/h) | Plant Response Index (D) (Morningglory; [6]) | Plant Response Index (D) (Morningglory; Table III, 2 WAT, .28 kg/h) | Plant Response Index (D) (Morningglory; Table III, 4 WAT, 1.1 kg/h) | Plant Response Index (D) (Morningglory; [8]) | Plant Response Index (L) (Soybean; 2 WAT, 1.1 kg/h) | Plant Response Index (L) (Soybean; 2 WAT, 5.6 kg/h) | Plant Response Index (L) (Soybean; [11]) | Plant Response Index (L) (Soybean; [13]) | Plant Response Index (M) (Sugar Beet; 4 WAT, 5.6 kg/h) | Plant Response Index (Q) (Wild Buckwheat; 2 WAT, 1.1 kg/h) | Plant Response Index (Q) (Wild Buckwheat; [15]) | Plant Response Index (Q) (Wild Buckwheat; 2 WAT, 5.6 kg/h) | Plant Response Index (Q) (Wild Buckwheat; 2 WAT, .28 kg/h) | Plant Response Index (Q) (Wild Buckwheat; 4 WAT, 1.1 kg/h) | Plant Response Index (Q) (Wild Buckwheat; [17]) | Plant Response Index (Q) (Wild Buckwheat; 4 WAT, .28 kg/h) | Plant Response Index (G) (Yellow Nutsedge; 2 WAT, 11.2 kg/h) | Plant Response Index (G) (Yellow Nutsedge; 4 WAT, 5.6 kg/h) | Plant Response Index (G) (Yellow Nutsedge; [13]) | Plant Response Index (G) (Yellow Nutsedge; [14])
